13 compounds from ChEMBL document CHEMBL5291721, “A preclinical secondary pharmacology resource illuminates target-adverse drug reaction associations of marketed drugs” (Nat Commun, 2023) can be followed below.

Structures are written as SMILES.

Some targets named below: D(1A) dopamine receptor (Homo sapiens, UniProt P21728); Histamine H2 receptor (Homo sapiens, UniProt P25021); Glucagon receptor (Homo sapiens, UniProt P47871).
Test [1] concerns the target T1, Neuropeptide Y receptor type 2 (Homo sapiens, UniProt P49146).
T1 sequence (P49146 whole entry): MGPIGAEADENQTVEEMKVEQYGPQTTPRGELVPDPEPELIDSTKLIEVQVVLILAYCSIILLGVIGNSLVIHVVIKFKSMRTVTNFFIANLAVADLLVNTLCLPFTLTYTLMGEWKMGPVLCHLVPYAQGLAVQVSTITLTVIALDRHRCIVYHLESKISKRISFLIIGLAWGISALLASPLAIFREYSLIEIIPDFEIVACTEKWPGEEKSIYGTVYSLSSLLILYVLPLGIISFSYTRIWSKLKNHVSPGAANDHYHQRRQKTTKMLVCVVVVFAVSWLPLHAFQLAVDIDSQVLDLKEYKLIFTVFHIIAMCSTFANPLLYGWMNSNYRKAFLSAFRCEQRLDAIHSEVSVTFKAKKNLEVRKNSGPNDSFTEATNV

The target in the next test is Mu-type opioid receptor (Homo sapiens, UniProt P35372). The test is described as follows: biochemical. It is filed as functional.
The next test has as its target T2, Glucocorticoid receptor (Homo sapiens, UniProt P04150).
T2 sequence (P04150 whole entry): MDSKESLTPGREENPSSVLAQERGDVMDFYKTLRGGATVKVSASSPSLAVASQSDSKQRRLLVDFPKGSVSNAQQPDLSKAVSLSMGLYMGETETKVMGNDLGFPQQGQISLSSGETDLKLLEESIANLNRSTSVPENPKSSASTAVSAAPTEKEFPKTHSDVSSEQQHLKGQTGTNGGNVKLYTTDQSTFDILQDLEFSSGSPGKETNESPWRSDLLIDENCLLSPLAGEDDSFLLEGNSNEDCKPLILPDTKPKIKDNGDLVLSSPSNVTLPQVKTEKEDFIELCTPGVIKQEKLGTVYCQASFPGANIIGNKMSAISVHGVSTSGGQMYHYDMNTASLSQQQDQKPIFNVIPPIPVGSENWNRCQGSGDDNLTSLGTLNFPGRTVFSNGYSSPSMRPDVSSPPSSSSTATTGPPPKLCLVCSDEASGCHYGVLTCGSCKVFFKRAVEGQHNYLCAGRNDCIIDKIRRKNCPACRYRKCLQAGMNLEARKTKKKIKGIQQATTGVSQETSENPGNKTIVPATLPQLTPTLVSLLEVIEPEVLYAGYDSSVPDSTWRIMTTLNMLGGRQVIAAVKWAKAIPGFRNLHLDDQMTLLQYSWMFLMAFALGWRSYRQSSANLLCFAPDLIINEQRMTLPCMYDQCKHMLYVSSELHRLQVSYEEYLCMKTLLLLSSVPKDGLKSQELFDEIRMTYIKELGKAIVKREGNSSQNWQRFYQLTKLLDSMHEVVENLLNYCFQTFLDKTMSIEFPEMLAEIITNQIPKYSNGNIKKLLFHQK

The target of test [2] is T3, Corticotropin-releasing factor receptor 2 (Homo sapiens, UniProt Q13324).
T3 sequence (Q13324 whole entry): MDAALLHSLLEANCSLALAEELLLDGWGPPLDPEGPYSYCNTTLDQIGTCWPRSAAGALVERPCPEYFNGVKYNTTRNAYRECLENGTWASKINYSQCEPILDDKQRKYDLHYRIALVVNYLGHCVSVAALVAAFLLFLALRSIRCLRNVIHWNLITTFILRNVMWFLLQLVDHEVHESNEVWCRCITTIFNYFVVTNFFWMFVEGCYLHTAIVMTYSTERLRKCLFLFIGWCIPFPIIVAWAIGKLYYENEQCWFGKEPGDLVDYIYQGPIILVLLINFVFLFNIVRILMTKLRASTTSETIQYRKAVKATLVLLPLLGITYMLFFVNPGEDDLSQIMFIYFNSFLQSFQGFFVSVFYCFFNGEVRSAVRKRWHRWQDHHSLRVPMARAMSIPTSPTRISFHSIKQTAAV
Also: assay procedure not described here.

Sequence of D(1A) dopamine receptor (P21728 whole entry): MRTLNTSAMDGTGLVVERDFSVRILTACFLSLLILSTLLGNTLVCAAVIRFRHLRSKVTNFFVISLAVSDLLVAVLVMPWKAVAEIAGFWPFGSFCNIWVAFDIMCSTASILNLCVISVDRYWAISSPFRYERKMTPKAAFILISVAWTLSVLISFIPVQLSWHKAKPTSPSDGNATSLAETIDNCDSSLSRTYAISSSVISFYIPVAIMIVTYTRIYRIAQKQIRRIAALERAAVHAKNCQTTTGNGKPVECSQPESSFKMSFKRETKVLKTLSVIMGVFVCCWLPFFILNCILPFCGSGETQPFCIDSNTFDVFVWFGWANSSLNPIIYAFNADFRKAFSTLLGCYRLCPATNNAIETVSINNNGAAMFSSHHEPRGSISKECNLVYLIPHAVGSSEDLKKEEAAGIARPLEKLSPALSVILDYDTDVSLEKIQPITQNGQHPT
Sequence of Histamine H2 receptor (P25021 whole entry): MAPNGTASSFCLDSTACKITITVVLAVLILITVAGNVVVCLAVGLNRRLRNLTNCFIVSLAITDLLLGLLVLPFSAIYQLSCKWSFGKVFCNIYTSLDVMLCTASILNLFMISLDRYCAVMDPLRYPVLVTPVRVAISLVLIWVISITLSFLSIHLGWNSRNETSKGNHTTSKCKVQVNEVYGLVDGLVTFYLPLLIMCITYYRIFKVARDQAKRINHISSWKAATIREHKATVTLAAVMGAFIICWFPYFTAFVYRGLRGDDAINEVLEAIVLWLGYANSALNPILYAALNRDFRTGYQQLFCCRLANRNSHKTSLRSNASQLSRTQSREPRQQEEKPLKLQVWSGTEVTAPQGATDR
Sequence of Glucagon receptor (P47871 whole entry): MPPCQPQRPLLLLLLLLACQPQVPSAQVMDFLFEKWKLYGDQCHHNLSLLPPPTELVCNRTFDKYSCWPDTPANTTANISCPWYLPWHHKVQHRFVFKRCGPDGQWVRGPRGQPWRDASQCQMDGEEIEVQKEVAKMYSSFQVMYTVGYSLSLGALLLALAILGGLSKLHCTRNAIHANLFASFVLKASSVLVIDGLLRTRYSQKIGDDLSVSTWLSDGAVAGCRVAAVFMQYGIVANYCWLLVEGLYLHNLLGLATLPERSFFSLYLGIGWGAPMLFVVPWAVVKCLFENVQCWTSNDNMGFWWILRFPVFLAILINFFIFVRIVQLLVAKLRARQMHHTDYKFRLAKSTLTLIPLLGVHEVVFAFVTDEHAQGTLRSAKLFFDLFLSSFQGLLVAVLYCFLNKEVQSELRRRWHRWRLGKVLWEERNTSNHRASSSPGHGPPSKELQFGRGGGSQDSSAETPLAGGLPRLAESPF
Sequence of Mu-type opioid receptor (P35372 whole entry): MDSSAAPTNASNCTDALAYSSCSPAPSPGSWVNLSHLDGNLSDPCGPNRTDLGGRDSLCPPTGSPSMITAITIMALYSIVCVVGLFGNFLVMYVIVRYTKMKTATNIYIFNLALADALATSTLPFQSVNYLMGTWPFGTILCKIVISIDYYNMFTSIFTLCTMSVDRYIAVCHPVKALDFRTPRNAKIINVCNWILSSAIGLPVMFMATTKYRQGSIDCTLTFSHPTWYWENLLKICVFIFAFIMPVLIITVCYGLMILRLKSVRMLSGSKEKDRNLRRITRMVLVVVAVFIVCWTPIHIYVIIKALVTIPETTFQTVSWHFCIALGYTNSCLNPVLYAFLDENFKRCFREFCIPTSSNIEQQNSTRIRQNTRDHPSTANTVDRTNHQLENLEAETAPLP

As to `CCCN(CCC)C(=O)Cc1c(-c2ccc(Cl)cc2)nc2ccc(Cl)cn12` [ALPIDEM], the half-maximal activity concentration (AC50) at D(1A) dopamine receptor is above 10 µM; in test [1] it was above 10 µM; at Histamine H2 receptor it was above 10 µM; at Mu-type opioid receptor, above 30 µM; at Glucagon receptor it was above 10 µM.
Regarding `COc1ccccc1Oc1c(NS(=O)(=O)c2ccc(C(C)(C)C)cc2)nc(-c2ncccn2)nc1OCCO` [BOSENTAN], the AC50 at D(1A) dopamine receptor is above 10 µM; on Glucocorticoid receptor, above 30 µM; in test [1] it was above 30 µM; on Histamine H2 receptor it was above 10 µM; on Glucagon receptor, above 30 µM; in test [2] it was above 30 µM.
`COc1ccccc1OCCNCC(O)COc1cccc2[nH]c3ccccc3c12` (configuration not stated) [CARVEDILOL]: the AC50 at D(1A) dopamine receptor was 2.28 µM; at Glucocorticoid receptor it was above 30 µM; in test [1], above 30 µM; on Histamine H2 receptor, 1.56 µM; on Mu-type opioid receptor, 5.2 µM; at Glucagon receptor, above 30 µM. In test [2], this compound came in with an AC50 above 30 µM.
Regarding `C[C@@H](Oc1cc(-c2cnn(C3CCNCC3)c2)cnc1N)c1c(Cl)ccc(F)c1Cl` [CRIZOTINIB], the AC50 at D(1A) dopamine receptor is above 10 µM; in test [1], above 30 µM; on Glucagon receptor, above 30 µM.
With `CC(C)N(CCC(C(N)=O)(c1ccccc1)c1ccccn1)C(C)C` (configuration not stated) [DISOPYRAMIDE], the AC50 (in test [1]; on Glucagon receptor; in test [2]) was above 30 µM in each case.
As for `C[C@H]1c2cccc(O)c2C(=O)C2=C(O)[C@]3(O)C(=O)C(C(N)=O)=C(O)[C@@H](N(C)C)[C@@H]3[C@@H](O)[C@@H]21` [DOXYCYCLINE], the AC50 is above 10 µM at D(1A) dopamine receptor; above 30 µM in test [1]; above 10 µM at Histamine H2 receptor; above 30 µM at Glucagon receptor; above 30 µM in test [2].
Turning to `CC(C)Cc1ccc(C(C)C(=O)O)cc1` (configuration not stated) [IBUPROFEN], the AC50 at D(1A) dopamine receptor was above 10 µM; at Glucocorticoid receptor, above 30 µM; in test [1], above 30 µM; at Histamine H2 receptor it was above 10 µM; at Glucagon receptor, above 30 µM; in test [2] it was above 30 µM.
Consider `CO[C@H]1/C=C/O[C@@]2(C)Oc3c(C)c(O)c4c(O)c(c(/C=N/N5CCN(C)CC5)c(O)c4c3C2=O)NC(=O)/C(C)=C\C=C\[C@H](C)[C@H](O)[C@@H](C)[C@@H](O)[C@@H](C)[C@H](OC(C)=O)[C@@H]1C` [RIFAMPIN], for which the AC50 on D(1A) dopamine receptor was above 10 µM; in test [1], 21.6 µM; at Histamine H2 receptor, above 10 µM; on Mu-type opioid receptor it was above 30 µM; on Glucagon receptor it was above 30 µM; in test [2], above 30 µM.
`CN(C)CCc1c[nH]c2ccc(Cn3cncn3)cc12` [RIZATRIPTAN]: the AC50 at D(1A) dopamine receptor is above 10 µM; in test [1], above 30 µM; on Histamine H2 receptor, above 10 µM; on Mu-type opioid receptor, above 30 µM; at Glucagon receptor it was above 30 µM; in test [2], above 30 µM.
For `N[C@@H](CC(=O)N1CCn2c(nnc2C(F)(F)F)C1)Cc1cc(F)c(F)cc1F` [SITAGLIPTIN], the AC50 (on D(1A) dopamine receptor; in test [1]; at Histamine H2 receptor) was above 10 µM each time.
In the case of `Nc1ccc(S(=O)(=O)Nc2nccs2)cc1` [SULFATHIAZOLE], the AC50 at D(1A) dopamine receptor was above 10 µM; at Glucocorticoid receptor, above 30 µM; in test [1], above 30 µM; at Histamine H2 receptor, above 10 µM; at Glucagon receptor it was above 30 µM; in test [2], above 30 µM.
For the compound `Cc1onc(-c2ccccc2)c1-c1ccc(S(N)(=O)=O)cc1` [VALDECOXIB], the AC50 at D(1A) dopamine receptor was above 10 µM; on Glucocorticoid receptor, above 30 µM; in test [1], above 30 µM; at Histamine H2 receptor, above 10 µM; at Glucagon receptor it was above 30 µM; in test [2], above 30 µM.
With `CCCC(CCC)C(=O)O` [VALPROIC ACID], the AC50 at D(1A) dopamine receptor was above 10 µM; at Glucocorticoid receptor, above 30 µM; in test [1] it was above 30 µM; at Glucagon receptor it was above 30 µM; in test [2] it was above 30 µM.

A word on the AC50: it is the midpoint of the concentration-response curve, whichever way the signal moves. Low values mean greater potency, high ones weaker potency.
